Laboratory results: PubChem BioAssay (NCI)
Values joined by “and” are separate entries in the source; they are usually repeats but may differ in a detail not shown here. Identical values can stand only once.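 In this assay, cells in 96-well plates receive the compound at five concentrations for 48 hours. Endpoints are linearly interpolated between the surrounding concentrations. Abbreviation: GI50, concentration required for 50% inhibition of growth. TGI: total growth inhibition.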

Legend:
Test in all cases: inhibition of tumour cell growth, NCI panel, 48 h
CAKI-1 renal = system: CAKI-1 renal
HOP-62 NSCLC = system: HOP-62 NSCLC
IGROV1 ovarian = system: IGROV1 ovarian
K-562 leukemia = system: K-562 leukemia
KM12 colon = system: KM12 colon
OVCAR-3 ovarian = system: OVCAR-3 ovarian
SK-MEL-2 melanoma = system: SK-MEL-2 melanoma
SK-OV-3 ovarian = system: SK-OV-3 ovarian
SW-620 colon = system: SW-620 colon
T-47D breast = system: T-47D breast

| SMILES | GI50 (CAKI-1 renal) [µM] | TGI (CAKI-1 renal) [µM] | GI50 (HOP-62 NSCLC) | TGI (HOP-62 NSCLC) | GI50 (IGROV1 ovarian) [µM] | TGI (IGROV1 ovarian) [µM] | GI50 (K-562 leukemia) | TGI (K-562 leukemia) [µM] | GI50 (KM12 colon) [µM] | TGI (KM12 colon) [µM] | GI50 (OVCAR-3 ovarian) [µM] | TGI (OVCAR-3 ovarian) [µM] | GI50 (SK-MEL-2 melanoma) | TGI (SK-MEL-2 melanoma) | GI50 (SK-OV-3 ovarian) [µM] | TGI (SK-OV-3 ovarian) [µM] | GI50 (SW-620 colon) [µM] | TGI (SW-620 colon) [µM] | GI50 (T-47D breast) | TGI (T-47D breast) |
| --- | --- | --- | --- | --- | --- | --- | --- | --- | --- | --- | --- | --- | --- | --- | --- | --- | --- | --- | --- | --- |
| Cn1c(O)c(C(/C=C/c2ccccc2)=NCCN=C(/C=C/c2ccccc2)c2c(O)n(C)c(=O)n(C)c2=O)c(=O)n(C)c1=O | 19.9 | > 50 | 23.4 µM | > 50 µM | 20.7 | > 50 | 14.6 µM | > 50 | 14.1 | > 50 | 21 | > 50 | 27.3 µM | > 50 µM | 19.9 | > 50 | 15.5 | 34.2 | 16.1 µM | > 50 µM |
| CCOC(=O)/C=C/c1cc2cc(-c3csc4ccccc34)ccc2[nH]1 | 3.13 | 15.2 | 5.71 µM | 24.4 µM | 4.62 | 17.4 | 2.09 µM | 10.3 | 2.67 | 7.93 | 5.34 | 17.1 | 4.92 µM | 17.3 µM | 15.2 | 28.7 | 3.54 | 14.1 | 4.45 µM | 18 µM |
| O=C([O][Hg][CH2]C1COC([CH2][Hg][O]C(=O)c2ccccc2)CO1)c1ccccc1 (stereo not drawn) | 3.38 | 6.76 | 19.2 µM and 20.7 µM | 37.9 µM and 56.4 µM | 8.71 | 17.2 | 0.648 µM and 0.945 µM | 2.87 | 31.1 | 46 | 7.93 | 21.9 | 12.8 µM and 1.84 µM | 25.7 µM and 3.75 µM | 17.6 | 31.4 | 1.64 | 3.04 | 1.88 µM and 1.7 µM | 4.06 µM and 4.17 µM |
| Cc1noc(C)c1-c1cc(O)cc(C(O)c2ccccc2)c1 (stereo not drawn) | 4.35 | > 100 | 4.89 µM | > 100 µM | 23.2 | > 100 | 8.69 µM | > 100 | 8.2 | > 100 | 6.65 | > 100 | 23.5 µM | > 100 µM | 7.01 | > 100 | 24.6 | > 100 | 7.7 µM | > 100 µM |
| CN(C)c1ncnc2c1nnn2C1OC(CO)C(O)C1O (stereo not drawn) | 0.066 | 8.77 | 0.405 µM | > 100 µM | 0.361 | 15.9 | 0.0973 µM | > 100 | 1.07 | 32.8 | 0.308 | 2.46 | 0.104 µM | 0.773 µM | 0.0413 | 22.5 | 0.293 | > 100 | 0.141 µM | 2.81 µM |
| CN=C(NC#N)NCCSCc1nc[nH]c1C | – | > 100 | – | > 100 µM | – | > 100 | – | > 100 | – | > 100 | – | > 100 | – | > 100 µM | – | > 100 | – | > 100 | – | > 100 µM |
| CCOC(=O)c1c2c(n(Cc3ccccc3)c1C)-c1ccccc1C(=O)C2=O | 17.2 | 36.6 | 13.7 µM | 27.1 µM | 4.35 | 20.1 | 17.1 µM | > 100 | 19.8 | 65.3 | 12.2 | 29.3 | 18.4 µM | 40.8 µM | 19.8 | 37.2 | 11.7 | 28.4 | 13.2 µM | 31.8 µM |
| O=C(CF)N(O)c1ccc(/C=C/c2ccccc2)cc1 | 0.609 | 2.85 | 5.91 µM | 32.2 µM | 2.53 | 13 | 7.92 µM | > 100 | 16.5 | > 100 | 3.28 | 19.7 | 27.1 µM | > 100 µM | 7.53 | 32.1 | 1.3 | > 100 | 1.06 µM | > 34.1 µM |
| C/C(=C\C1=C(Cl)C(=O)c2ccccc2C1=O)C(=O)O | 22.1 | 36.6 | 18.8 µM | 33.7 µM | 15.1 | 28.6 | 23.1 µM | 54.9 | 18.1 | 33.7 | 19.4 | 34.2 | 18.1 µM | 33.4 µM | 19 | 33.1 | 21.7 | 37.4 | 15.3 µM | 48.7 µM |
| CC(=O)c1cc2c(cc1Nc1c3ccccc3nc3occ(Cl)c13)OCO2 | 0.085 | > 100 | 0.291 µM | > 65.1 µM | 0.185 | > 100 | 0.037 µM | > 100 | 0.0556 | 0.494 | 0.0725 | 0.178 | – | > 100 µM | 0.781 | > 100 | 0.0344 | > 100 | – | > 100 µM |
